In patent US5639726A, “Peptide mediated enhancement of thrombolysis methods and compositions” (The Regents of the University of Michigan, priority 1994, dated 1997):
Each block holds one substance with its values, some of them ahead of it. Ends that are not written are not given here.

Legend:
[1] = target: T1, PAI-1 (Homo sapiens, UniProt P05121); assay: Kinetics of peptide annealing: residual PAI inhibitory activity assayed with β-trypsin and S-2222; assay type: biochemical; conditions: for IC50: FIG. 2, read-out: IC50 for the inactivation of PAI-1; for kobs / k: 25° C.; for half-life of PAI-1 decreased to: summary of Example 2, peptide concentration not given
T1 construct: made in house; host or cells: E. coli (vector pET3a)
T1 sequence (P05121 24-402): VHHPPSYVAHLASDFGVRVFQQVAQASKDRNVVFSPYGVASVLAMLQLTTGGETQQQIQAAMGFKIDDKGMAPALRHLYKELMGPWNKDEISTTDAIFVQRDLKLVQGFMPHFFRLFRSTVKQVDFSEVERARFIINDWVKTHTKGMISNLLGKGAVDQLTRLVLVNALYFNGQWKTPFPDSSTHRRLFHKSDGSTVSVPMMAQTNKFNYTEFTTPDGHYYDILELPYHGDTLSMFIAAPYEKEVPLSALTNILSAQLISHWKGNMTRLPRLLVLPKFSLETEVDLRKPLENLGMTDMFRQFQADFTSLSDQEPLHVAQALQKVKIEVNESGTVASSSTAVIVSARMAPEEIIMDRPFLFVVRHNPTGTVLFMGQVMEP
Description: PAI-1 (6.4 μM) was incubated with increasing concentrations of each peptide at 23° C. and the (T1/2) of PAI-1 inactivation was determined by measuring the PAI-1 activity remaining over time.
Peptides were dissolved in 1 mM HCl+1% TWEEN-80 (the three PAI peptides) (SEQ ID NOS: 1-3), or in 0.1M HEPES (SEQ ID NOS: 4-5), 0.1M NaCl, 0.1% PEG-8000, pH […] (the two consensus peptides). Peptides were annealed to active PAI by incubation of active PAI in 0.1M HEPES, 0.1M NaCl, 0.1% PEG-8000, pH 7.4 with a peptide in its solvent. Ten percent of the final incubation mixture consisted of the peptide solvent. Incubation was carried out at 25° C. until no PAI inhibitory activity remained as determined by kinetics rate assays with trypsin, described below. The final concentration of PAI in the incubation mixture was either 0.9 μM (for kinetics assays) or 6.3 μM (for gels and purification). The peptide concentrations varied greatly due to the individual solubilities and rates of insertion of each peptide. These concentrations are given in the legends of the appropriate figures.
During annealing of 0.9 μM PAI with a peptide, the residual inhibitory activity of PAI was measured after varying incubation times by assaying an aliquot of the sample with β-trypsin. Trypsin (1 nM final concentration) was added to the chromogenic substrate S-2222 (950 μM) with 27 nM PAI sample. The absorbance at 405 nm was measured continuously for at least 12.5 min in a Shimadzu UV-265 UV-visible spectrophotometer. The pseudo-first order rate constant of trypsin is an indirect measure of the amount of PAI that has lost inhibitory activity due either to annealing or to becoming latent. The rate constant of controls containing the peptide solvent but no peptide was subtracted from that of the experimental assays in order to correct for the effect of the simultaneous change of PAI from the active to the latent state.

[2] = target: T1, PAI-1; assay: as above; assay type: biochemical; conditions: for lowest PAI-1 functional half-life obtained with increasing concentrations of peptide: 9.0 hr in the absence of peptide
[3] = target: T1, PAI-1; assay: Native gel electrophoresis of PAI incubated with peptide; assay type: binding
Description: SDS-polyacrylamide gel electrophoresis (SDS-PAGE) under nonreducing conditions was carried out according to the method of Laemmli (Laemmli, 1970) on 10% gels. Native gel electrophoresis with 5% gels was carried out by omitting SDS and boiling from Laemmli's method. All gels were stained with Coomassie brilliant blue. Gels of PAI-peptide samples were scanned with an LKB Ultroscan XL Laser Densitometer to determine the relative amounts of peptide-annealed and latent PAI.
Four of the five peptides have a net negative charge due to glutamic acid residues and the free carboxy terminus (FIG. 1). The wtPAI 8-mer has a net -1 charge (the carboxy terminus). The V→E PAI 8-mer (SEQ ID NO:3) and consensus 8-mer (SEQ ID NO:4) each have a -2 charge (the glutamic acid residue and the carboxyl group). […] The PAI 14-mer (SEQ ID NO:1) is uncharged since it contains no glutamic acid and the arginine and carboxyl groups neutralize each other. Because of the negative charges of 4 of the peptides, native gels of PAI annealed to these peptides should show a band which migrates more quickly than the band representative of free active PAI. Similarly, if one of these peptides is incubated with PAI but fails to form a strong interaction with PAI, native gels should show a band which migrates identically to the free PAI.

[4] = test system: normal human plasma; assay: Activated partial thromboplastin time (APTT) in normal human plasma, with porcine coronary thrombus extract; assay type: biochemical
Description: Platelets contain several factors that inhibit heparin, including platelet factor 4, heparatinase, and histidine-rich glycoprotein. In an attempt to study potential heparin resistance within the microenvironment of the coronary thrombus the coronary thrombi previously analyzed for PAI-1 content were also assessed for their capacity to inhibit heparin in vitro (Eitzman et al., 1994). Pharmaceutical grade, unfractionated heparin was added to normal human plasma in sufficient quantity (0.12 U/mL) to prolong the activated partial thromboplastin time (APTT) to approximately 2× control. APTT determinations were then repeated after the addition of 2.5 μL of thrombus extract per 100 μL of heparinized plasma.
Similar experiments were also performed using recombinant hirudin as anticoagulant. In these experiments, hirudin (0.17 μg/mL) was used to prolong the APTT to approximately twice control values. However, unlike the case with heparin, thrombus extracts had no effect on capacity of hirudin to prolong the APTT (FIG. 9a).

Substance: Ac-TEASSSTA [SEQ ID NO: 3, Thr-Glu-Ala-Ser-Ser-Ser-Thr-Ala]
IC50 [1]: 1600 µM
kobs ([1]; peptide .05 mM): .090 h⁻¹
k ([1]; peptide .1 mM): .35 M⁻¹ s⁻¹
kobs ([1]; peptide .246 mM): .33 h⁻¹
k ([1]; peptide .4 mM): .33 M⁻¹ s⁻¹
kobs ([1]; peptide .6 mM): .98 h⁻¹
half-life of PAI-1 decreased to [1]: 1.2 h
lowest PAI-1 functional half-life obtained with increasing concentrations of peptide ([2]; 25° C.): 1.2 h
k ([2]; peptide .05 mM, 25° C.): .50 M⁻¹ s⁻¹
t1/2 of PAI-1 inactivation ([2]; peptide .05 mM, 25° C.): 7.7 h
kobs ([2]; peptide .1 mM, 25° C.): .13 h⁻¹
t1/2 of PAI-1 inactivation ([2]; peptide .1 mM, 25° C.): 5.5 h
k ([2]; peptide .15 mM, 25° C.): .37 M⁻¹ s⁻¹
kobs ([2]; peptide .15 mM, 25° C.): .20 h⁻¹
t1/2 of PAI-1 inactivation ([2]; peptide .15 mM, 25° C.): 3.5 h
k ([2]; peptide .2 mM, 25° C.): .40 M⁻¹ s⁻¹
kobs ([2]; peptide .2 mM, 25° C.): .28 h⁻¹
t1/2 of PAI-1 inactivation ([2]; peptide .2 mM, 25° C.): 2.4 h
k ([2]; peptide .246 mM, 25° C.): .37 M⁻¹ s⁻¹
t1/2 of PAI-1 inactivation ([2]; peptide .246 mM, 25° C.): 2.1 h
k ([2]; peptide .3 mM, 25° C.): .39 M⁻¹ s⁻¹
kobs ([2]; peptide .3 mM, 25° C.): .42 h⁻¹
t1/2 of PAI-1 inactivation ([2]; peptide .3 mM, 25° C.): 1.7 h
kobs ([2]; peptide .4 mM, 25° C.): .48 h⁻¹
t1/2 of PAI-1 inactivation ([2]; peptide .4 mM, 25° C.): 1.4 h
k ([2]; peptide .5 mM, 25° C.): .44 M⁻¹ s⁻¹
kobs ([2]; peptide .5 mM, 25° C.): .79 h⁻¹
t1/2 of PAI-1 inactivation ([2]; peptide .5 mM, 25° C.): .87 h
k ([2]; peptide .6 mM, 25° C.): .45 M⁻¹ s⁻¹
t1/2 of PAI-1 inactivation ([2]; peptide .6 mM, 25° C.): .71 h
electrophoretic mobility of active PAI incubated with peptide, native gel [3]: Only a single major band

Substance: Ac-TVASSSTA [SEQ ID NO: 2, Thr-Val-Ala-Ser-Ser-Ser-Thr-Ala]
IC50 [1]: 230 µM
half-life of PAI-1 decreased to [1]: 0.717 h
lowest PAI-1 functional half-life obtained with increasing concentrations of peptide ([2]; 25° C.): 0.7 h
t1/2 of PAI-1 ([2]; peptide 55 μM, 25° C.): over 400 min
k ([2]; peptide .015 mM, 25° C.): 1.7 M⁻¹ s⁻¹
kobs ([2]; peptide .015 mM, 25° C.): .093 h⁻¹
t1/2 of PAI-1 inactivation ([2]; peptide .015 mM, 25° C.): 7.5 h
k ([2]; peptide .025 mM, 25° C.): .99 M⁻¹ s⁻¹
kobs ([2]; peptide .025 mM, 25° C.): .089 h⁻¹
t1/2 of PAI-1 inactivation ([2]; peptide .025 mM, 25° C.): 7.8 h
k ([2]; peptide .045 mM, 25° C.): 6.9 M⁻¹ s⁻¹
kobs ([2]; peptide .045 mM, 25° C.): 1.1 h⁻¹
t1/2 of PAI-1 inactivation ([2]; peptide .045 mM, 25° C.): .62 h
k ([2]; peptide .064 mM, 25° C.): 42 M⁻¹ s⁻¹
kobs ([2]; peptide .064 mM, 25° C.): 9.6 h⁻¹
t1/2 of PAI-1 inactivation ([2]; peptide .064 mM, 25° C.): .072 h
electrophoretic mobility of active PAI incubated with peptide, native gel [3]: two bands

Substance: heparin
shortening of the APTT by thrombus extract ([4]; 2.5 μL of thrombus extract per 100 μL of heparinized plasma): approximately 20 seconds
prolongation of the APTT ([4]; heparin 0.12 U/mL): approximately 2 × control

Substance: hirudin
effect of thrombus extracts on capacity to prolong the APTT ([4]; hirudin 0.17 μg/mL): no effect
prolongation of the APTT ([4]; hirudin 0.17 μg/mL): approximately twice

Further lines, results first:

IC50 [1]: 1600 µM
kobs ([1]; peptide 2.5 mM): .21 h⁻¹
kobs ([1]; peptide 5.04 mM): .38 h⁻¹
half-life of PAI-1 decreased to [1]: 1.3 h
lowest PAI-1 functional half-life obtained with increasing concentrations of peptide ([2]; 25° C.): 1.2 h
k ([2]; peptide 1.5 mM, 25° C.): .024 M⁻¹ s⁻¹
kobs ([2]; peptide 1.5 mM, 25° C.): .13 h⁻¹
t1/2 of PAI-1 inactivation ([2]; peptide 1.5 mM, 25° C.): 5.4 h
k ([2]; peptide 2.5 mM, 25° C.): .024 M⁻¹ s⁻¹
t1/2 of PAI-1 inactivation ([2]; peptide 2.5 mM, 25° C.): 3.3 h
k ([2]; peptide 3.5 mM, 25° C.): .022 M⁻¹ s⁻¹
kobs ([2]; peptide 3.5 mM, 25° C.): .28 h⁻¹
t1/2 of PAI-1 inactivation ([2]; peptide 3.5 mM, 25° C.): 2.5 h
k ([2]; peptide 5.04 mM, 25° C.): .021 M⁻¹ s⁻¹
t1/2 of PAI-1 inactivation ([2]; peptide 5.04 mM, 25° C.): 1.8 h
k ([2]; peptide 7 mM, 25° C.): .017 M⁻¹ s⁻¹
kobs ([2]; peptide 7 mM, 25° C.): .44 h⁻¹
t1/2 of PAI-1 inactivation ([2]; peptide 7 mM, 25° C.): 1.6 h
k ([2]; peptide 9 mM, 25° C.): .017 M⁻¹ s⁻¹
kobs ([2]; peptide 9 mM, 25° C.): .54 h⁻¹
t1/2 of PAI-1 inactivation ([2]; peptide 9 mM, 25° C.): 1.3 h
k ([2]; peptide 11 mM, 25° C.): .015 M⁻¹ s⁻¹
kobs ([2]; peptide 11 mM, 25° C.): .58 h⁻¹
t1/2 of PAI-1 inactivation ([2]; peptide 11 mM, 25° C.): 1.2 h
Substance: Ac-TEAAAATG [SEQ ID NO: 4, Thr-Glu-Ala-Ala-Ala-Ala-Thr-Gly]

kobs ([1]; peptide 1 mM): .097 h⁻¹
half-life of PAI-1 decreased to [1]: 0.2 h
half-life of PAI inactivation ([2]; 0.9 μM PAI, 1.2 mM peptide): about 12 min
k ([2]; peptide 1 mM, 25° C.): .027 M⁻¹ s⁻¹
t1/2 of PAI-1 inactivation ([2]; peptide 1 mM, 25° C.): 7.2 h
k ([2]; peptide 1.3 mM, 25° C.): .75 M⁻¹ s⁻¹
kobs ([2]; peptide 1.3 mM, 25° C.): 3.4 h⁻¹
t1/2 of PAI-1 inactivation ([2]; peptide 1.3 mM, 25° C.): .20 h
Substance: Ac-TEAAAATGAAATGR [SEQ ID NO: 5, TEAAAATGAAATGR]
